Reference: US20250127751A1, “Traditional Chinese Medicine Compound Preparation for Tumors and Application thereof” (priority 2023, published 2025)
Where “and” joins values, the source holds several entries; their conditions need not be identical. Equal values may be shown once. Read-outs that look alike come from different tables or passages of the source.

Assays:
Type in all cases: cell-based, human
NB4 cells [1] = settings: 24 h
Method: The ANNEXIN V-FITC/PI double-staining method is established based on a principle of asymmetric loss of cell membrane in apoptotic cells, that is, externalization of phosphatidylserine. Determination of results: normal live cells: annexin V^−PI^−; apoptotic cells: annexin V^+PI^−, and necrotic or late apoptotic cells: annexin V^+PI^+.
NB4 cells at the logarithmic growth phase were seeded at a density of 1×10^5 cells/well into a 6-well plate, and dosed 24 h later. The proapoptotic effect of each group was detected according to the dosing methods in Table 1. The cells were collected 24 h after drug dosing and detected on a flow cytometer according to the operating procedure of an ANNEXIN V-FITC/PI apoptosis detection kit (purchased from Solarbio). The experiment was repeated three times.

NB4 cells [2] = settings: single compound 30 μM; dosed 10 d
Method: When normal neutrophils or differentiated cells are stimulated, the production of intracellular superoxide anions increases. NBT receives hydrogen from NADPH in the differentiated cells and reduces into insoluble blue black or blue purple particles—formazane particles.
NB4 cells at the logarithmic growth phase were seeded at a density of 2×10^5 cells/well into a 6-well plate, and dosed 24 h later. […] 24 h after the last dose, the culture medium was discarded, and the cells were washed twice with PBS. 500 μL of a 0.1% NBT solution (purchased from Sigma and prepared from PBS) containing 1 μg/ml of phorbol ester (PMA, purchased from Sigma) was added to each well, and the cells were incubated at 37° C. for 30 min, washed twice with PBS, and observed under a microscope. In a 400× magnification field, 200 cells were randomly counted from each specimen. Cells containing gray or black formazane particles in the cytoplasm were counted as NBT reduction positive cells, and the percentage of the reduction positive cells was calculated. The experiment was repeated three times.

CD33 = system: CD33
Method: (§1) In an immunological marker examination of APL cells, CD11b is negative and CD33 is positive. The surface antigen CD33 is associated with the degree of cellular immaturity, while the surface antigen CD11b is associated with the degree of cellular maturity, High expression of CD11b, as an adhesion molecule on the cell surface, may be a marker of cell differentiation maturation.
(§2) NB4 cells at the logarithmic growth phase were seeded at a density of 2×10^5 cells/well into a 6-well plate, and dosed 24 h later. […] 24 h after the last dosing, cells were collected, centrifuged to remove the culture medium, washed twice with precooled PBS, and resuspended in 100 μL PBS. APC (allophycocyanin) and BB515 labeled CD11b and CD33 monoclonal antibodies and corresponding isotype antibodies (both purchased from BD, USA) were added respectively. Following mixing, the cells were incubated at 4° C. for 30 min, filtered through a cell filter membrane, and then detected.

CD11b = system: CD11b
Method: as §1, §2

NB4 cells [3] = settings: 10 d; doses of Table 2 (alone 30 μM, pairs 15 μM each, DCI 10 μM each)
Method: NB4 cells at the logarithmic growth phase were seeded at a density of 2×10^5 cells/well into a 6-well plate, and dosed 24 h later. […] NB4 cells cultured for 10 d were centrifuged at 110 g for 3 min, smeared, fixed with methanol, and air dried naturally. Then, the cell smear was stained with Wright's-Giemsa for morphological observation. The experiment was repeated three times.

[4] = single compound 30 μM, dosed 10 d

| Structure (SMILES) | Apoptosis rate of NB4 cells (%) (NB4 cells [1]; single compound 20 μM) | Apoptosis rate of NB4 cells (%) (NB4 cells [1]; single compound 40 μM) | NBT reduction positive rate in NB4 cells (%) (NB4 cells [2]) | Positive rate of CD33 expression in NB4 cells (%) (CD33; [4]) | Positive rate of CD11b expression in NB4 cells (%) (CD11b; [4]) | Morphology of NB4 cells (NB4 cells [3]) | Positive rate of CD33 expression in NB4 cells (%) (CD33) | Positive rate of CD11b expression in NB4 cells (%) (CD11b) |
| --- | --- | --- | --- | --- | --- | --- | --- | --- |
| Nc1ncnc2c1ncn2[C@@H]1O[C@H](CO)C[C@H]1O [CDY, Cordycepin] | 10.70 ± 3.54 | 19.39 ± 5.64 | 3.19% and 3.19 ± 2.09% | 37.14 ± 15.90 | 1.79 ± 1.42 | no significant differences from the control group |  |  |
| O=C1Nc2ccccc2/C1=C1/Nc2ccccc2C1=O [IDB, Indirubin] | 28.88 ± 11.51 | 31.38 ± 8.92 | 15.20% and 15.20 ± 4.10 % |  |  |  | 27.50 ± 16.67 | 26.42 ± 10.91 |
